# According to ChEMBL document CHEMBL1130856, “A new series of cyclic amino acids as inhibitors of S-adenosyl L-methionine synthetase” (Bioorg Med Chem Lett, 1998):
# Tests used:
# [1] = biological target: T1, S-adenosylmethionine synthase isoform type-1 (Rattus norvegicus, UniProt P13444); experiment: Compound was evaluated for its inhibitory activity against recombinant S-adenosyl L-Methionine synthetase (alpha-isoform) in rat liver
# [2] = biological target: T1, S-adenosylmethionine synthase isoform type-1; experiment: Compound was evaluated for its inhibitory activity against recombinant S-adenosyl L-Methionine synthetase (alpha-isoform) in rat liver; No significant activity
# T1 sequence (P13444 whole entry, canonical isoform): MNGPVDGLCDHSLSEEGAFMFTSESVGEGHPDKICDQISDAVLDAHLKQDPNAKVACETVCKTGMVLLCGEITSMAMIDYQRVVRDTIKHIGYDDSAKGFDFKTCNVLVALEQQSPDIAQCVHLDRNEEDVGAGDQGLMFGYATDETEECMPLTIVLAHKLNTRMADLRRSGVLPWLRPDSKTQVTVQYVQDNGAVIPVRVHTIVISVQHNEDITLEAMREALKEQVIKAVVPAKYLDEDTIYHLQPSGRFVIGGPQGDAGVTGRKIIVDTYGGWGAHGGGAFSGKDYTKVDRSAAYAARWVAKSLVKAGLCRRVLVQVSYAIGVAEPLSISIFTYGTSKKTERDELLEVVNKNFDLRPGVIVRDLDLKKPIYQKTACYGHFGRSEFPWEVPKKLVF
SMILES,Ki [1],Ki [2]
N[C@]1(C(=O)O)CCOC1,750 µM,Not Active
N[C@]1(C(=O)O)CCSC1,1040 µM,Not Active
CO/C=C\[C@H](N)C(=O)O,56 µM,–
NC1(C(=O)O)CCCC1 [CYCLOLEUCINE],516 µM,–
NC1(C(=O)O)CCOCC1,1000 µM,–
NC1(C(=O)O)CCSCC1,3000 µM,–
